Measured values published in patent US20220387604A1, “SELECTIVE DUAL HISTONE DEACETYLASE 6/8 (HDAC6/8) DEGRADERS AND METHODS OF USE THEREOF” (DANA-FARBER CANCER INSTITUTE, INC., priority 2019, published 2022).

Tests used:
CRBN = biological target: T1, CRBN (Homo sapiens, UniProt Q96SW2); assay: Cellular CRBN engagement assay (competition with dBET6, BRD4BD2-eGFP reporter, Flip-In 293 cells); type: cell-based; conditions: titrated in the presence of 100 nM dBET6, 5 h, Flip-In 293 cells expressing BRD4BD2-eGFP/mCherry
T1 construct: endogenous in cells; host or cells: Flip-In 293 cells stably expressing BRD4BD2-eGFP-P2A-mCherry
Description: BRD4BD2 was subcloned into mammalian pcDNA5/FRT Vector (Ampicillin and Hygromycin B resistant) modified to contain MCS-eGFP-P2A-mCherry. Stable cell lines expressing eGFP-protein fusion and mCherry reporter were generated using Flip-In 293 system. Plasmid (0.3 μg) and pOG44 (4.7 μg) DNA were preincubated in 100 μL of Opti-MEM I (Gibco, Life Technologies™) media containing 0.05 mg/ml Lipofectamine 2000 (Invitrogen™) for 20 min and added to Flip-In 293 cells containing 1.9 ml of DMEM media (Gibco, Life Technologies™) per well in a 6-well plate format (Falcon, 353046). Cells were propagated after 48 h and transferred into a […] (Coming, 430165) in DMEM media containing 50 μg/ml of Hygromycin B (REF 10687010, Invitrogen™) as a selection marker. Following 2-3 passage cycles, FACS (FACSAria II, BD) was used to enrich for cells expressing eGFP and mCherry.
Cells were seeded at 30-50% confluency in either 24, 48 or 96 well plates (3524, 3548, 3596 respectively, Costar) a day before compound treatment. The inventive compounds were titrated in the presence of 100 nM dBET6 and then were incubated with cells for 5 h following trypsinization and resuspension in DMEM media, transferred into 96-well plates (353910, Falcon) and analyzed by flow cytometer (Guava® easyCyte™ HT, Millipore). Signal from at least 3000 events per well was acquired and the eGFP and mCherry florescence monitored. Data was analyzed using FlowJo® (FlowJo®, LCC). Forward and side scatter outliers, frequently associated with cell debris, were removed leaving >90% of total cells, followed by removal of eGFP and mCherry signal outliers, leaving 88-90% of total cells creating the set used for quantification. The eGFP protein abundance relative to mCherry was then quantified as a ten-fold amplified ratio for each individual cell using the formula: 10× eGFP/mCherry. The median of the ratio was then calculated per set, normalized to the median of the DMSO ratio. […]

HDAC6/8 = assay: Quantitative proteomics of cellular protein abundance in Kelly cells: HDAC6/8; type: cell-based, human; conditions: for change of cellular HDAC6/8 protein levels (heat map FIG. 3): 1 μM, 5 hours, compared to DMSO control; for reduction in HDAC6/8 protein levels compared to DMSO treated cells: moderated t-test, scatter plots FIG. 2A-2C, 4A-4B
Description: Lysis buffer (8 M Urea, 50 mM NaCl, 50 mM 4-(2hydroxyethyl)-1-piperazineethanesulfonic acid (EPPS) pH 8.5, protease and phosphatase inhibitors from Roche®) were added to the cell pellets and homogenized by 20 passes through a 21 gauge (1.25 in. long) needle to achieve a cell lysate with a protein concentration between 1-4 mg mL^−1. A micro-BCA assay (Pierce™) was used to determine the final protein concentration in the cell lysate. 200 μg of protein for each sample were reduced and alkylated as described in Donovan et al., Elife 7:e38430 (2018).
Proteins were precipitated using methanol/chloroform. Four volumes of methanol were added to the cell lysate, followed by one volume of chloroform, and finally three volumes of water. The mixture was vortexed and centrifuged to separate the chloroform phase from the aqueous phase. The precipitated protein was washed with three volumes of methanol, centrifuged and the resulting washed precipitated protein was allowed to air dry. The precipitated protein was resuspended in 4 M Urea, 50 mM HEPES pH 7.4, followed by dilution to 1 M urea with the addition of 200 mM EPPS, pH 8. Proteins were first digested with LysC (1:50; enzyme:protein) for 12 hours at room temperature. The LysC digestion was diluted to 0.5 M Urea with 200 mM EPPS pH 8 followed by digestion with trypsin (1:50; enzyme:protein) for 6 hours at 37° C. Tandem mass tag (TMT) reagents (Thermo Fisher Scientific) were dissolved in anhydrous acetonitrile (ACN) according to manufacturer's instructions.
Anhydrous ACN was added to each peptide sample to a final concentration of 30% v/v, and labeling was induced with the addition of TMT reagent to each sample at a ratio of 1:4 peptide:TMT label. The 10-plex labeling reactions were performed for 1.5 hours at room temperature and the reaction quenched by the addition of hydroxylamine to a final concentration of 0.3% for 15 minutes at room temperature. The sample channels were combined at a 1:1:1:1:1:1:1:1:1:1:1 ratio, desalted using C18 solid phase extraction cartridges (Waters®) and analyzed by LC-MS for channel ratio comparison. Samples were then combined using the adjusted volumes determined in the channel ratio analysis and dried down in a speed vacuum. The combined sample was then resuspended in 1% formic acid, and acidified (pH 2-3) before being subjected to desalting with C18 SPE (Sep-Pak®, Waters®). Samples were then offline fractionated into 96 fractions by high pH reverse-phase HPLC (Agilent® LC1260) through an aeris peptide xb-c18 column (Phenomenex®) with mobile phase A containing 5% acetonitrile and 10 mM NH4HCO3 in LC-MS grade H2O, and mobile phase B containing 90% acetonitrile and 10 mM NH4HCO3 in LC-MS grade H2O (both pH 8.0). The 96 resulting fractions were then pooled in a non-continuous manner into 24 fractions and these fractions were used for subsequent mass spectrometry analysis.
Data were collected using an Orbitrap Fusion™ Lumos™ mass spectrometer (Thermo Fisher Scientific, San Jose, Calif., USA) coupled with a Proxeon EASY-nLC™ 1200 LC pump (Thermo Fisher Scientific). Peptides were separated on an EasySpray™ ES803 75 μm inner diameter microcapillary column (ThermoFisher Scientific).
Each analysis used an MS3-based TMT method as described in McAlister et al., Anal. Chem. 86(14):7150-7158 (2014). The data were acquired using a mass range of m/z 340-1350, resolution 120,000, automatic gain control (AGC) target 1×10^6, maximum injection time 100 ms, dynamic exclusion of 120 seconds for the peptide measurements in the Orbitrap Fusion™ Lumos™ mass spectrometer. Data dependent MS2 spectra were acquired in the ion trap with a normalized collision energy (NCE) set at 55%, AGC target set to 1.5×10^5 and a maximum injection time of 150 ms. […]

Row | SMILES | IC50 (CRBN) [µM] | change of cellular HDAC6/8 protein levels (heat map FIG. 3) (HDAC6/8) | reduction in HDAC6/8 protein levels compared to DMSO treated cells (HDAC6/8)
1 | O=C(/C=C/c1ccc(CN(CCCCCNc2cccc3c2C(=O)N(C2CCC(=O)NC2=O)C3=O)CCc2c[nH]c3ccccc23)cc1)NO (stereo not drawn) [Compound 3, (E)-3-(4-(((2-(1H-indol-3-yl)ethyl)(5-((2-(2,6-dioxopiperidin-3-yl)-1,3-dioxoisoindolin-4-yl)amino)pentyl)amino)methyl)phenyl)-N-hydroxyacrylamide] | 10 | induced down-regulation | significant reduction
2 | O=C(/C=C/c1ccc(CN(CCOCCOCCNc2cccc3c2C(=O)N(C2CCC(=O)NC2=O)C3=O)CCc2c[nH]c3ccccc23)cc1)NO (stereo not drawn) [Compound 1, (E)-3-(4-(((2-(1H-indol-3-yl)ethyl)(2-(2-(2-((2-(2,6-dioxopiperidin-3-yl)-1,3-dioxoisoindolin-4-yl)amino)ethoxy)ethoxy)ethyl)amino)methyl)phenyl)-N-hydroxyacrylamide] | 11.7 | induced down-regulation | significant reduction
3 | O=C(/C=C/c1ccc(CN(CCOCCNc2cccc3c2C(=O)N(C2CCC(=O)NC2=O)C3=O)CCc2c[nH]c3ccccc23)cc1)NO (stereo not drawn) [Compound 2, (E)-3-(4-(((2-(1H-indol-3-yl)ethyl)(2-(2-((2-(2,6-dioxopiperidin-3-yl)-1,3-dioxoisoindolin-4-yl)amino)ethoxy)ethyl)amino)methyl)phenyl)-N-hydroxyacrylamide] | 19.2 | induced down-regulation | significant reduction
